Results reported in ChEMBL document CHEMBL1201862, “PubChem BioAssay data set” (2004).
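Results reflect a 48-hour exposure of cells in 96-well plates to compound at five concentrations. The concentration for 50% growth inhibition is given as GI50.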 Active and inactive are the calls of the source. No stated cut-off is given here; in the data, active = GI50 up to about 1.1 µM and inactive = higher.

How the values were obtained:
Test in all cases: DTP human tumour cell line panel, 48 h
[1] = system: TK-10
[2] = system: COLO 205
[3] = system: Malme-3M
[4] = system: HOP-62
[5] = system: UO-31
[6] = system: DU-145
[7] = system: SNB-19
[8] = system: K562
[9] = system: SK-OV-3
[10] = system: SN12C
[11] = system: U-251
[12] = system: OVCAR-8
[13] = system: CAKI-1
[14] = system: MOLT-4
[15] = system: EKVX
[16] = system: UACC-257
[17] = system: KM12
[18] = system: SW-620
[19] = system: NCI-H23
[20] = system: NCI-H522

Row | Structure (SMILES) | GI50 [1] | GI50 [2] | GI50 [3] | GI50 [4] | GI50 [5] | GI50 [6] | GI50 [7] | GI50 [8] | GI50 [9] | GI50 [10] | GI50 [11] | GI50 [12] | GI50 [13] | GI50 [14] | GI50 [15] | GI50 [16] | GI50 [17] | GI50 [18] | GI50 [19] | GI50 [20]
1 | NC1CC(=O)c2c1sc(Cl)c2Cl (configuration not stated) | > 100 µM (inactive) | > 100 µM (inactive) | > 100 µM (inactive) | > 100 µM (inactive) | > 100 µM (inactive) | > 100 µM (inactive) | > 100 µM (inactive) | > 100 µM (inactive) | > 100 µM (inactive) | > 100 µM (inactive) | > 100 µM (inactive) | > 100 µM (inactive) | > 100 µM (inactive) | > 100 µM (inactive) | > 100 µM (inactive) | > 100 µM (inactive) | > 100 µM (inactive) | > 100 µM (inactive) |  | 
2 | O=C(Sc1n[nH]c(=O)[nH]c1=O)c1cccc2nc3ccccc3nc12 | > 100 µM (inactive) | 2.44 µM (inactive) | 5.64 µM (inactive) |  |  | 10.6 µM (inactive) | > 100 µM (inactive) | 47.9 µM (inactive) | > 100 µM (inactive) | 34.3 µM (inactive) | > 100 µM (inactive) | > 100 µM (inactive) | 78.3 µM (inactive) | > 100 µM (inactive) | > 100 µM (inactive) | 13.2 µM (inactive) | 39 µM (inactive) | 41.2 µM (inactive) | 3.78 µM (inactive) | 
3 | COc1ccc(/C=N/NS(=O)(=O)c2ccc(/C=C3\NC(=O)N(C)C3=O)cc2)cc1 | 49.3 µM (inactive) | > 100 µM (inactive) | > 100 µM (inactive) | 40.2 µM (inactive) | 50.4 µM (inactive) | > 100 µM (inactive) | 80.9 µM (inactive) | > 100 µM (inactive) | > 100 µM (inactive) | > 100 µM (inactive) | > 100 µM (inactive) | 56.2 µM (inactive) | > 100 µM (inactive) | 63.5 µM (inactive) | 89.9 µM (inactive) | 57.8 µM (inactive) | > 100 µM (inactive) | > 100 µM (inactive) | 92.9 µM (inactive) | 
4 | CC1(C)NC(C(=O)c2ccccc2)=[N+]([O-])C1(O)c1ccccc1 (configuration not stated) | > 100 µM (inactive) | > 100 µM (inactive) | > 100 µM (inactive) | > 100 µM (inactive) | 69.8 µM (inactive) | > 100 µM (inactive) | > 100 µM (inactive) | > 100 µM (inactive) | > 100 µM (inactive) | > 100 µM (inactive) | > 100 µM (inactive) | > 100 µM (inactive) | > 100 µM (inactive) | > 100 µM (inactive) | > 100 µM (inactive) | 54.5 µM (inactive) | > 100 µM (inactive) | > 100 µM (inactive) | > 100 µM (inactive) | 
5 | CCCCCCCCCCCCCC(=O)O[C@H]1CC[C@H](NC(=O)[C@H](OC)[C@H](O)[C@@H](O)[C@H](O)/C=C/C(C)C)C(=O)N(C)C1 [BENGAMIDE B] | 0.179 µM (active) | 0.00259 µM (active) | 0.0362 µM (active) | 0.00809 µM (active) | 0.0208 µM (active) |  | 0.008 µM (active) | 0.00811 µM (active) | 0.0721 µM (active) | 0.00419 µM (active) | 0.00286 µM (active) | 0.00782 µM (active) | 0.0216 µM (active) | 0.00643 µM (active) | 1.08 µM (active) | 0.0331 µM (active) | 0.00418 µM (active) | 0.00433 µM (active) | 0.00977 µM (active) | 0.00577 µM (active)
